What was measured:
[1] = test system: Balb/c female mice; test: Irritation induced by retinoic acid: mouse ear thickness; format: in vivo
Experimental: (§1) Thirty (30) Balb/c female mice were obtained from Sprague Dawley Labs. A 1.0% (w/v) solution of PAME was prepared in a gel formulation (2.5% HPMC in 75% ethanol). A second solution containing a 2:1 volume ratio of acetone to ethanol was also prepared. A 20% (w/v) solution of captopril and the second solution (sufficient to elicit a strong irritant response), was also prepared. In addition a 1.0% HPMC solution was prepared as a placebo.
(§2) The Group I mice (10 mice) received the second solution and then 10 minutes later the HPMC solution. The positive control mice (10) designated as Group II received the captopril solution to the right ear followed by the HPMC solution. The experimental group of mice (10) (Group III) received the captopril solution to the right ear followed ten minutes later by the PAME solution.
(§3) The thickness of the ears was measured after 2 hours when maximum redness and swelling from the captopril solution were observed.
The procedures of […] were repeated except that captopril was replaced by retinoic acid in an amount of 1% (w/v) in a 1% HPMC gel.

[2] = test system: Balb/c female mice; test: Irritation induced by phorbol myristate: mouse ear thickness; details: in vivo
Experimental: as §1, §2, §3
The procedures of Example 4 were repeated except that captopril was replaced with phorbol myristate (12-tetradecanyol-13-phorbol myristic acid) in an amount of 0.1% (w/v) in a 1% HPMC gel. Phenoxyacetic acid was also tested in this protocol.

[3] = test system: Balb/c mice; test: Counter sensitizer to DNCB: ear swelling after DNCB challenge of sensitized mice; format: in vivo
Experimental: (§4) A 1.0% (w/v) solution of phenoxyacetic acid methyl ester (PAME, a compound of Formula I wherein R is methyl) was prepared in a gel formulation (2.5% HPMC in 75% ethanol). The same gel formulation served as a negative control. For sensitization, a 1% (w/v) solution of dinitrochlorobenzene (DNCB) was prepared in acetone.
(§5) Twenty-four (24) Balb/c mice had their back skin shaved. The mice were divided into three equal groups. The first group acted as a negative control and received on day 0 an application of acetone. The second and third groups each received 20 μL of 1% DNCB in acetone on the exposed back skin.
[…] Then, 10 minutes after challenge, the first and second groups received 100 μL of 1% HPMC in 75% ethanol. The third group received 1% of PAME in the HPMC gel.
(§6) Adverse reaction to the challenge with DNCB was determined by measuring the thickness of the mice ears before and after challenge to determine the amount of swelling, and then comparing the degree of swelling for mice treated in accordance with the invention (Group III) with Groups I and Groups II.

[4] = test system: Balb/c female mice; test: Irritation induced by dinitrochlorobenzene: mouse ear thickness; format: in vivo
Experimental: as §1, §2, §3
The procedures of Example 4 were repeated except that captopril was replaced with dinitrochlorobenzene (DNCB) in an amount of 2.0% (w/v) in a 1% HPMC gel.

[5] = test system: Balb/c mice; test: Counter sensitizer to oxazolone: ear swelling after challenge of sensitized mice; format: in vivo
Experimental: as §4, §5
All three groups were challenged on the right ear with 20μL of 1% DNCB in acetone five (5) days after sensitization. Then, 10 minutes after challenge, the first and second groups received 100 μL of 1% HPMC in 75% ethanol. The third group received 1% of PAME in the HPMC gel.
as §6
The procedures of Example 1 were repeated except that the mice were sensitized with a 1% (w/v) solution of oxazolone.

[6] = test system: Balb/c female mice; test: Irritation induced by captopril: mouse ear thickness; format: in vivo
Experimental: as §1, §2, §3

[7] = PAME (2 mg) in HPMC gel + oxazolone (100 μg), 24 hours

| Compound | EAR THICKNESS ([1]; PAME + retinoic acid 1% (w/v), 2 hours) [MM × 10^−3] | % SUPPRESSION ([1]; PAME + retinoic acid, 2 hours, vs retinoic acid only) [%] | inflammation induced by retinoic acid (in words) ([1]; mouse, in vivo) | inflammation induced by contact with phorbol myristate (in words) [2] | EAR SWELLING ([3]; PAME (1 mg) in HPMC gel + DNCB (100 μg), 24 hours) [MM × 10^−3] | EAR THICKNESS ([3]; PAME (1 mg) in HPMC gel + DNCB (100 μg), 24 hours, right ear) [MM × 10^−3] | % SUPPRESSION ([3]; PAME (1 mg) in HPMC gel + DNCB (100 μg), 24 hours, vs DNCB only) [%] | adverse reaction of the skin induced by sensitization with DNCB (in words) ([3]; administered alone, prophylactically) | EAR THICKNESS ([4]; PAME + DNCB 2.0% (w/v), 2 hours) [MM × 10^−3] | % SUPPRESSION ([4]; PAME + DNCB, 2 hours, vs DNCB only) [%] | inflammation induced by contact with DNCB (in words) ([4]; mouse, in vivo) | EAR SWELLING [5, 7] [MM × 10^−3] | EAR THICKNESS [5, 7] [MM × 10^−3] | % SUPPRESSION ([5]; PAME (2 mg) in HPMC gel + oxazolone (100 μg), 24 hours, vs oxazolone only) [%] | adverse reactions induced by sensitization with oxazolone (in words) ([5]; mouse, in vivo) | EAR THICKNESS ([6]; 1.0% PAME gel 10 minutes after 20% captopril solution, 2 hours) [MM × 10^−3] | % SUPPRESSION ([6]; PAME + captopril, 2 hours, vs captopril only) | inflammation induced by contact with captopril (in words) ([6]; mouse, in vivo) |
| --- | --- | --- | --- | --- | --- | --- | --- | --- | --- | --- | --- | --- | --- | --- | --- | --- | --- | --- |
| COC(=O)COc1ccccc1 [PAME, phenoxyacetic acid methyl ester] | 237 ± 11 | 100 | suppressed inflammation | suppressed inflammation | 12 | 240 ± 6 | 62 | prevented an adverse reaction of the skin | 249 ± 8 | 100 | suppressed inflammation | 16 | 278 ± 15 | 84 | suppressed adverse reactions | 226 ± 5 | ≈93% | suppressed inflammation |
| O=C(O)COc1ccccc1 [PHENOXYACETIC ACID, Phenoxyacetic acid] | – | – | – | suppressed inflammation | – | – | – | – | – | – | – | – | – | – | – | – | – | – |

From patent publication US6670395B1, “Prophylactic and therapeutic treatment of skin sensitization and irritation” (Bristol-Myers Squibb Company, priority 1996, dated 2003)
